Where two headings read alike, the source gives them in different places.
Tested on: erythrocytes infected with 3D7 trophozoites
Type: cell-based, Plasmodium falciparum
Settings: 6 μM

Compound: COc1ccc2c(c1)OC(O)(C(F)(F)C(F)(F)F)CC2=O (stereo not shown) [MMV007839]
- Serine log2 ratio (+MMV007839/-MMV007839) (Av 3hr): 0.166
- Succinate log2 ratio (+MMV007839/-MMV007839) (Av 3hr): -0.2462
- Succinate semialdehyde log2 ratio (+MMV007839/-MMV007839) (Av 3hr): -0.7119
- TNVK log2 ratio (+MMV007839/-MMV007839) (Av 3hr): -1.745
- Threonine log2 ratio (+MMV007839/-MMV007839) (Av 3hr): 0.01502
- Tryptophan log2 ratio (+MMV007839/-MMV007839) (Av 3hr): -0.2359
- Tyrosine log2 ratio (+MMV007839/-MMV007839) (Av 3hr): -0.01653
- UDP log2 ratio (+MMV007839/-MMV007839) (Av 3hr): -0.7159
- UDP-N-acetyl-D-glucosamine log2 ratio (+MMV007839/-MMV007839) (Av 3hr): 0.05247
- UDP-glucose log2 ratio (+MMV007839/-MMV007839) (Av 3hr): -0.07837
- UMP log2 ratio (+MMV007839/-MMV007839) (Av 3hr): -0.2624
- Uracil log2 ratio (+MMV007839/-MMV007839) (Av 3hr): -0.6081
- Uric Acid log2 ratio (+MMV007839/-MMV007839) (Av 3hr): -0.1135
- VD log2 ratio (+MMV007839/-MMV007839) (Av 3hr): 1.073
- Valine log2 ratio (+MMV007839/-MMV007839) (Av 3hr): -0.194
- Xanthine log2 ratio (+MMV007839/-MMV007839) (Av 3hr): -0.464
- dADP log2 ratio (+MMV007839/-MMV007839) (Av 3hr): -1.193
- dATP log2 ratio (+MMV007839/-MMV007839) (Av 3hr): -0.03116
- dCDP log2 ratio (+MMV007839/-MMV007839) (Av 3hr): 0.3315
- dGMP log2 ratio (+MMV007839/-MMV007839) (Av 3hr): 0.1661
- dTMP log2 ratio (+MMV007839/-MMV007839) (Av 3hr): 0.1316
- dTTP log2 ratio (+MMV007839/-MMV007839) (Av 3hr): -0.08156
- dUMP log2 ratio (+MMV007839/-MMV007839) (Av 3hr): 1.365
- myo-Inositol log2 ratio (+MMV007839/-MMV007839) (Av 3hr): -0.258
- sn-Glycerol 3-phosphate log2 ratio (+MMV007839/-MMV007839) (Av 3hr): 1.559
- sn-glycero-3-Phospho-1-inositol log2 ratio (+MMV007839/-MMV007839) (Av 3hr): 0.1698
- Hexose-phosphate log2 ratio (+MMV007839/-MMV007839) (Av 3hr, medRt 15.0954): -0.3219
- 6-Phospho-D-gluconate log2 ratio (+MMV007839/-MMV007839) (Av 3hr, medRt 16.8944): -0.6275
- Hexose-phosphate log2 ratio (+MMV007839/-MMV007839) (Av 3hr, medRt 17.0788): -1.577
- 6-Phospho-D-gluconate log2 ratio (+MMV007839/-MMV007839) (Av 3hr, medRt 17.4636): -0.2282
- 1-3 (2-3)-diphopshateglycerate log2 ratio (+MMV007839/-MMV007839) (Av 6hr): 0.3636
- 2-Hydroxyglutarate log2 ratio (+MMV007839/-MMV007839) (Av 6hr): -0.3824
- 2-Ketoglutarate log2 ratio (+MMV007839/-MMV007839) (Av 6hr): -0.4713
- 3-Phosho-D-glycerate log2 ratio (+MMV007839/-MMV007839) (Av 6hr): 0.02516
- 3-Phospho-serine log2 ratio (+MMV007839/-MMV007839) (Av 6hr): -0.6364
- 4-Aminobutanoate log2 ratio (+MMV007839/-MMV007839) (Av 6hr): 1.092
- 5-Phosphoribosyl-1-pyrophosphate log2 ratio (+MMV007839/-MMV007839) (Av 6hr): 0.556
- ADP log2 ratio (+MMV007839/-MMV007839) (Av 6hr): -0.3027
- AMP log2 ratio (+MMV007839/-MMV007839) (Av 6hr): -0.04039
- ATLS log2 ratio (+MMV007839/-MMV007839) (Av 6hr): -0.1601
- ATP log2 ratio (+MMV007839/-MMV007839) (Av 6hr): -0.3608
- Acetyl-CoA log2 ratio (+MMV007839/-MMV007839) (Av 6hr): -0.9886
- Acetyl-L-alanine log2 ratio (+MMV007839/-MMV007839) (Av 6hr): -0.3969
- Adenine log2 ratio (+MMV007839/-MMV007839) (Av 6hr): -0.7079
- Arginine log2 ratio (+MMV007839/-MMV007839) (Av 6hr): 0.2024
- Asparagine log2 ratio (+MMV007839/-MMV007839) (Av 6hr): 0.205
- Aspartic Acid log2 ratio (+MMV007839/-MMV007839) (Av 6hr): -0.08675
- CDP log2 ratio (+MMV007839/-MMV007839) (Av 6hr): -0.2824
- CDP-ethanolamine log2 ratio (+MMV007839/-MMV007839) (Av 6hr): -0.09908
- CMP log2 ratio (+MMV007839/-MMV007839) (Av 6hr): 0.2839
- CTP log2 ratio (+MMV007839/-MMV007839) (Av 6hr): -0.5655
- Cholesteryl sulfate log2 ratio (+MMV007839/-MMV007839) (Av 6hr): -0.1903
- Citrate log2 ratio (+MMV007839/-MMV007839) (Av 6hr): -0.1627
- CoA log2 ratio (+MMV007839/-MMV007839) (Av 6hr): -0.6499
- Cyclic AMP log2 ratio (+MMV007839/-MMV007839) (Av 6hr): -1.349
- Cytidine log2 ratio (+MMV007839/-MMV007839) (Av 6hr): 0.1751
- D-Glucono-1-4-lactone log2 ratio (+MMV007839/-MMV007839) (Av 6hr): 2.219
- DALT log2 ratio (+MMV007839/-MMV007839) (Av 6hr): 0.7209
- DEVG log2 ratio (+MMV007839/-MMV007839) (Av 6hr): -0.06216
- DGLA log2 ratio (+MMV007839/-MMV007839) (Av 6hr): 0.8365
- DLS log2 ratio (+MMV007839/-MMV007839) (Av 6hr): -0.1236
- Deoxycytidine log2 ratio (+MMV007839/-MMV007839) (Av 6hr): 1.626
- Dihydroorotate log2 ratio (+MMV007839/-MMV007839) (Av 6hr): -1.004
- ESFG log2 ratio (+MMV007839/-MMV007839) (Av 6hr): 0.5044
- EVGG log2 ratio (+MMV007839/-MMV007839) (Av 6hr): -0.2203
- Erythrose 4-phosphate log2 ratio (+MMV007839/-MMV007839) (Av 6hr): -0.7036
- FAD log2 ratio (+MMV007839/-MMV007839) (Av 6hr): -0.616
- FMN log2 ratio (+MMV007839/-MMV007839) (Av 6hr): -0.6137
- Farnesyl diphosphate log2 ratio (+MMV007839/-MMV007839) (Av 6hr): -0.2783
- Folate log2 ratio (+MMV007839/-MMV007839) (Av 6hr): -0.4942
- Fructose-1-6-bisphosphate log2 ratio (+MMV007839/-MMV007839) (Av 6hr): 0.3974
- Fructose-6-Phosphate log2 ratio (+MMV007839/-MMV007839) (Av 6hr): -0.1081
- GDP log2 ratio (+MMV007839/-MMV007839) (Av 6hr): -0.8963
- GDP-mannose log2 ratio (+MMV007839/-MMV007839) (Av 6hr): -1.076
- GMP log2 ratio (+MMV007839/-MMV007839) (Av 6hr): -0.8795
- GTP log2 ratio (+MMV007839/-MMV007839) (Av 6hr): -0.6956
- Geranylgeranyl pyrophosphate log2 ratio (+MMV007839/-MMV007839) (Av 6hr): -0.7121
- Gluconate log2 ratio (+MMV007839/-MMV007839) (Av 6hr): -0.0152
- Glucose-6-Phosphate log2 ratio (+MMV007839/-MMV007839) (Av 6hr): -0.5083
- Glutamate log2 ratio (+MMV007839/-MMV007839) (Av 6hr): -0.02563
- Glutamine log2 ratio (+MMV007839/-MMV007839) (Av 6hr): 1.089
- Glutathione disulfide log2 ratio (+MMV007839/-MMV007839) (Av 6hr): -0.1925
- Glutathione log2 ratio (+MMV007839/-MMV007839) (Av 6hr): -0.4326
- Glyceraldehyde 3-phosphate log2 ratio (+MMV007839/-MMV007839) (Av 6hr): -1.148
- Glycerone phosphate log2 ratio (+MMV007839/-MMV007839) (Av 6hr): -0.3794
- HLD log2 ratio (+MMV007839/-MMV007839) (Av 6hr): 0.5581
- HVDD log2 ratio (+MMV007839/-MMV007839) (Av 6hr): 0.02571
- Histidine log2 ratio (+MMV007839/-MMV007839) (Av 6hr): 1.263
- Homoserine log2 ratio (+MMV007839/-MMV007839) (Av 6hr): 0.6347
- Hydroxy-L-proline log2 ratio (+MMV007839/-MMV007839) (Av 6hr): -0.1227
- Hypoxanthine log2 ratio (+MMV007839/-MMV007839) (Av 6hr): 0.2056
- IDP log2 ratio (+MMV007839/-MMV007839) (Av 6hr): 0.2522
- IMP log2 ratio (+MMV007839/-MMV007839) (Av 6hr): -0.2109
- Inosine log2 ratio (+MMV007839/-MMV007839) (Av 6hr): 0.5174
- Isoleucine log2 ratio (+MMV007839/-MMV007839) (Av 6hr): 0.1143
- LD log2 ratio (+MMV007839/-MMV007839) (Av 6hr): 0.1248
- Lactate log2 ratio (+MMV007839/-MMV007839) (Av 6hr): 2.505
- Leucine log2 ratio (+MMV007839/-MMV007839) (Av 6hr): 0.06585
- Lysine log2 ratio (+MMV007839/-MMV007839) (Av 6hr): 1.1316
- Malate log2 ratio (+MMV007839/-MMV007839) (Av 6hr): -0.236
- Mannitol log2 ratio (+MMV007839/-MMV007839) (Av 6hr): -0.1109
- Methionine log2 ratio (+MMV007839/-MMV007839) (Av 6hr): -0.2224
- Myristic acid log2 ratio (+MMV007839/-MMV007839) (Av 6hr): -0.7184
- N-Acetyl-glutamate log2 ratio (+MMV007839/-MMV007839) (Av 6hr): -1.091
- N-Carbamoyl-L-aspartate log2 ratio (+MMV007839/-MMV007839) (Av 6hr): -1.386
- NAD+ log2 ratio (+MMV007839/-MMV007839) (Av 6hr): 0.1336

Reference: paper PMC5298231, “The Malaria Parasite's Lactate Transporter PfFNT Is the Target of Antiplasmodial Compounds Identified in Whole Cell Phenotypic Screens” (PLoS Pathogens, 2017)
